The values that follow come from patent publication US8410144B2, “Substituted indolo-pyridinone compounds” (ArQule, Inc., priority 2009, dated 2013).

The subject of one assay is DLD-1. In words: MTS assay, DLD-1 cells. In kind it is cell-based. The settings on record: 72 hours; for DLD-1, MTS cell kill % inhibition: 10 μM; for inhibition at 10 µM: Homo sapiens, read-out: DLD-1, MTS cell kill % inhibition. On the procedure: (§1) Cells were maintained at 37° C., 5% CO2 in DMEM media supplemented with 1% fetal bovine serum, penicillin/streptomycin and fungizone (Invitrogen). Cells were seeded into 96-well tissue culture plates at 3000 per well and cultured at 37° C. for 18 hours. Test compounds were dissolved and diluted to 300× in DMSO then diluted 1:40 in DMEM. Cells were incubated with test compounds for 72 hours followed by incubation with tetrazolium compound (3-(4,5-dimethylthiazol-2-yl)-5-(3-carboxymethoxyphenyl)-2-(4-sulfophenyl)-2H-tetrazolium, inner salt; MTS) and the electron coupling reagent, phenazine methosulfate (PMS) for 4 hours. […] The ability of compounds to inhibit cell growth in this assay is correlated with the reduction of dehydrogenase enzyme activity found in metabolically active cells. The measurement of the absorbance of the formazan was assessed using an ENVISION™ (Perkin Elmer) microplate reader at 492 nm. The calculated IC50 value is the concentration of the test compound that causes a 50% decrease in the absorbance.

Another assay concerns KATO III. The assay is described as follows: MTS assay, KATO III cells. In kind it is cell-based. The settings on record: 72 hours; for KATO III, MTS cell kill % inhibition: 10 μM; for inhibition at 10 µM: Homo sapiens, read-out: KATO III, MTS cell kill % inhibition. On the procedure: as §1
The test system of another assay is MDA-MB-231. In words: MTS assay, MDA-MB-231 cells. As to conditions: 72 hours; for MDA-MB-231, MTS cell kill % inhibition: 10 μM; for inhibition at 10 µM: Homo sapiens, read-out: MDA-MB-231, MTS cell kill % inhibition. The class given is cell-based. On the procedure:
as §1

The test system of the next assay is NCI-H1299. In words: MTS assay, NCI-H1299 cells. The class given is cell-based. As to conditions: 72 hours; for NCI-H1299, MTS cell kill % inhibition: 10 μM; for inhibition at 10 µM: Homo sapiens, read-out: NCI-H1299, MTS cell kill % inhibition. On the procedure: as §1
Another assay addresses IGF-1R (Homo sapiens, UniProt P08069). The assay is described as follows: IGFR1 activity assay (ELISA). The class given is biochemical. As to conditions: for inhibition at 30 µM: read-out: IGF-1R, PCT INH (30 μM), ELISA. On the procedure:
The disclosed compounds were assayed for their ability to inhibit insulin-like growth factor receptor-1 (IGFR1). Nunc Maxisorb plates were coated with streptavidin by overnight incubation with 100 μL per well of 1 μg/ml Streptavidin in DPBS. Prior to the start of the experiment, the plates were washed with TBST (3×200 μL) and blocked for at least 1 hour by adding 150 μL of 5% BSA/TBST. The plates were washed with TBST (3×200 μL/well) and left to dry immediately before the capture step.
The disclosed test articles and controls (Staurosporine) were prepared using the following assay buffer at 3× desired final concentration (50 mM Tris-HCl, 0.02 mg/ml BSA, 10 mM MgCl2, 0.1 mM Na3VO4, 1 mM EGTA, 12.5 μM ATP, 0.01% NP-40, 1 mM DTT in 10% glycerol/water). 20 μL of the test compounds (or control), 20 μL IGF1R (0.33 ng/μL final concentration), and 20 μL of Pyk-2 (0.05 ng/μL final concentration) were rapidly added to the reaction plate. The plate was incubated at room temperature for one hour.
50 μL was transferred from the reaction plate to the streptavidin coated plate. The capture plate was incubated at room temperature for 30 minutes, then washed with TBST three times. 100 μL/well of Cell Signaling anti-phospho tyrosine was added to the capture plate at a dilution of 1:3000 in 2% BSA/TBST. The plate was incubated for one hour at room temperature then washed 6× with TBST. 100 μL/well of alkaline phosphatase tagged goat anti mouse antibody was added to the capture plate at a dilution of 1:4000 in 2% BSA/TBST. The plate was incubated for one hour at room temperature then washed with TBST six times.
The fluorescent readout is initiated by the addition of 100 μL/well of Attophos reagent (6 mg/10 mL). The reading is done on the Perkin Elmer Envision system.

IGF-1R, sequence (P08069 31-1367): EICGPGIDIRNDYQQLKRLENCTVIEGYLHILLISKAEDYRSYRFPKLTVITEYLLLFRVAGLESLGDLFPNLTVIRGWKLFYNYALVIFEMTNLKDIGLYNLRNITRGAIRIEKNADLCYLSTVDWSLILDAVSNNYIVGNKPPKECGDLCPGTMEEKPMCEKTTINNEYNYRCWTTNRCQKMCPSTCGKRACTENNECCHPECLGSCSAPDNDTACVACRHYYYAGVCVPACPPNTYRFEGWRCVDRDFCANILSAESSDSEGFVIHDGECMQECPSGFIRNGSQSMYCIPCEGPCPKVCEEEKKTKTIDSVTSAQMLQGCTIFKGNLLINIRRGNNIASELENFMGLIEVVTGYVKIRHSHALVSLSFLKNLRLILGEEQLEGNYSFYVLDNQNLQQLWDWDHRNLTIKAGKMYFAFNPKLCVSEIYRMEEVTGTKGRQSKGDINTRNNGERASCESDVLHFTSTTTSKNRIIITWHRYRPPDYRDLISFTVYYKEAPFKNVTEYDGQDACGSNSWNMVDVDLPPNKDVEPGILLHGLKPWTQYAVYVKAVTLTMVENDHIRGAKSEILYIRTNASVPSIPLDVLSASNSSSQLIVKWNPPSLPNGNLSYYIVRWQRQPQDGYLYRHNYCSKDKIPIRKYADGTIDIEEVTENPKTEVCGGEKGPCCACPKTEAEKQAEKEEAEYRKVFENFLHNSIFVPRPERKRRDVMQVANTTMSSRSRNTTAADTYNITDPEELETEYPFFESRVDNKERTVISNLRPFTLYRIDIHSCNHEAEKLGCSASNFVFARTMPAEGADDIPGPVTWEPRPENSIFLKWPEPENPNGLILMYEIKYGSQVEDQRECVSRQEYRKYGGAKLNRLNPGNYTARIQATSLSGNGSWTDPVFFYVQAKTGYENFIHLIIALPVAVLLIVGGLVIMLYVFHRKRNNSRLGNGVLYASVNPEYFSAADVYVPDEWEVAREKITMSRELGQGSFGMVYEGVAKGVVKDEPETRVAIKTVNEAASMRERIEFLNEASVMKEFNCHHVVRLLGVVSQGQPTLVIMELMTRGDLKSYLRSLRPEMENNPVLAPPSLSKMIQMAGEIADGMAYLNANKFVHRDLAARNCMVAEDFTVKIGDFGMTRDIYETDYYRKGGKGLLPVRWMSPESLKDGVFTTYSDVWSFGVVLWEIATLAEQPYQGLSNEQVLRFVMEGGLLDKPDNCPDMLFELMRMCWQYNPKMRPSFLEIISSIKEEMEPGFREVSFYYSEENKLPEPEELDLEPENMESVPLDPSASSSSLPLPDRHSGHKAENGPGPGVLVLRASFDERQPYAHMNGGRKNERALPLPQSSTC

For the molecule “3-[3-biphenyl-4-yl-5-({[3- (dimethylamino)propyl](methyl) amino}methyl)-1H-indol-2- yl]pyridin-2(1H)-one [Compound 53]”, the “DLD-1, MTS cell kill % inhibition” value in the assay with DLD-1 was “A (A = 80-100% inhibition)”. Also, the “KATO III, MTS cell kill % inhibition” value in the assay with KATO III is “A (A = 80-100% inhibition)”. For the same molecule, the “MDA-MB-231, MTS cell kill % inhibition” value with MDA-MB-231 is given as “A (A = 80-100% inhibition)”. Further, the “NCI-H1299, MTS cell kill % inhibition” value in the assay on NCI-H1299 was “A (A = 80-100% inhibition)”. On IGF-1R, the “IGF-1R, PCT INH (30 μM), ELISA” value is given as “C (C = <50% inhibition)”.
As to “3-biphenyl-4-yl-N-(2- chlorophenyl)-2-(2-oxo-1,2- dihydropyridin-3-yl)-1H- indole-5-carboxamide [Compound 35]”, the “DLD-1, MTS cell kill % inhibition” value in the assay on DLD-1 is listed as “C (C = <50% inhibition)”. The “KATO III, MTS cell kill % inhibition” value in the assay with KATO III is “C (C = <50% inhibition)”. Moreover, in the assay on MDA-MB-231, the “MDA-MB-231, MTS cell kill % inhibition” value is given as “C (C = <50% inhibition)”. Besides, in the assay with NCI-H1299, the “NCI-H1299, MTS cell kill % inhibition” value is recorded as “C (C = <50% inhibition)”. On IGF-1R, the “IGF-1R, PCT INH (30 μM), ELISA” value was “C (C = <50% inhibition)”.
Consider `O=C(NCc1ccc(F)cc1F)c1ccc2[nH]c(-c3ccc[nH]c3=O)c(-c3ccccc3)c2c1` [Compound 10, N-(2,4-difluorobenzyl)-2-(2-oxo-1,2-dihydropyridin-3-yl)-3-phenyl-1H-indole-5-carboxamide], for which the inhibition at 10 µM in the assay on DLD-1 was 80 to 100%; in the assay with KATO III it was 80 to 100%; with MDA-MB-231, less than 50%; in the assay on NCI-H1299, 80 to 100%. Further, the inhibition at 30 µM at IGF-1R is 80 to 100%.
In the case of `COCC(C)NC(=O)c1ccc2[nH]c(-c3ccc[nH]c3=O)c(-c3ccccc3)c2c1` (stereo not shown) [Compound 11, N-(2-methoxy-1-methylethyl)-2-(2-oxo-1,2-dihydropyridin-3-yl)-3-phenyl-1H-indole-5-carboxamide], the inhibition at 10 µM was 50 to 79% with DLD-1, 80 to 100% with KATO III, less than 50% in the assay with MDA-MB-231 and 50 to 79% in the assay on NCI-H1299. In addition, the inhibition at 30 µM on IGF-1R was in the range of 80 to 100%.
As to `O=C(c1ccc2[nH]c(-c3ccc[nH]c3=O)c(-c3ccccc3)c2c1)N1CCN(c2ccccc2F)CC1` [Compound 14, 3-(5-{[4-(2-fluorophenyl)piperazin-1-yl]carbonyl) -3-phenyl-1H-indol-2-yl)pyridin-2(1H)-one], the inhibition at 10 µM in the assay with DLD-1 lay within 50 to 79%; with KATO III, 80 to 100%; in the assay on NCI-H1299, 50 to 79%. In addition, at IGF-1R, the inhibition at 30 µM was in the range of 80 to 100%.
In the case of `O=C(Nc1ccc(F)cc1Cl)c1ccc2[nH]c(-c3ccc[nH]c3=O)c(-c3ccccc3)c2c1` [Compound 18, N-(2-chloro-4-fluorophenyl)-2-(2-oxo-1,2-dihydropyridin-3-yl)-3-phenyl-1H-indole-5-carboxamide], the inhibition at 10 µM in the assay on DLD-1 was 50 to 79%; in the assay on KATO III, 50 to 79%; in the assay on MDA-MB-231, less than 50%; in the assay with NCI-H1299, 80 to 100%. The inhibition at 30 µM on IGF-1R was less than 50%.
Turning to `COc1cccc(CCNC(=O)c2ccc3[nH]c(-c4ccc[nH]c4=O)c(-c4ccccc4)c3c2)c1OC` [Compound 19, N-[2-(2,3-dimethoxyphenyl)ethyl]-2-(2-oxo-1,2-dihydropyridin-3-yl)-3-phenyl-1H-indole-5-carboxamide], the inhibition at 10 µM with DLD-1, with KATO III, with MDA-MB-231 and in the assay on NCI-H1299 was 80 to 100% each time. The inhibition at 30 µM at IGF-1R was 80 to 100%.
Regarding `CN(C(=O)c1ccc2[nH]c(-c3ccc[nH]c3=O)c(-c3ccccc3)c2c1)c1ccc(F)cc1` [Compound 20, N-(4-fluorophenyl)-N-methyl-2-(2-oxo-1,2-dihydropyridin-3-yl)-3-phenyl-1H-indole-5-carboxamide], the inhibition at 10 µM in the assay with DLD-1, in the assay with KATO III, in the assay on MDA-MB-231 and with NCI-H1299 was 80 to 100% in each case. In addition, the inhibition at 30 µM at IGF-1R fell in the range of 80 to 100%.
As to `COc1cc2c(cc1OC)CN(C(=O)c1ccc3[nH]c(-c4ccc[nH]c4=O)c(-c4ccccc4)c3c1)CC2` [Compound 21, 3-{5-[(6,7-dimethoxy-3,4-dihydroisoquinolin-2(1H)-yl)carbonyl]-3-phenyl-1H-indol-2-yl}pyridin-2(1H)-one], the values for the inhibition at 10 µM in the assay on DLD-1, in the assay on KATO III and with NCI-H1299 were 50 to 79%, 80 to 100% and 80 to 100%, respectively. Moreover, the inhibition at 30 µM on IGF-1R was less than 50%.
As to `CN(CCc1ccccc1)C(=O)c1ccc2[nH]c(-c3ccc[nH]c3=O)c(-c3ccccc3)c2c1` [Compound 23, N-methyl-2-(2-oxo-1,2-dihydropyridin-3-yl)-3-phenyl-N-(2-phenylethyl)-1H-indole-5-carboxamide], the inhibition at 10 µM in the assay on DLD-1, in the assay on KATO III, in the assay on MDA-MB-231 and in the assay on NCI-H1299 was 80 to 100% in each case. Further, at IGF-1R, the inhibition at 30 µM was 80 to 100%.
For the molecule `CCOC(=O)N1CCN(C(=O)c2ccc3[nH]c(-c4ccc[nH]c4=O)c(-c4ccccc4)c3c2)CC1` [Compound 24, ethyl 4-{[2-(2-oxo-1,2-dihydropyridin-3-yl)-3-phenyl-1H-indol-5-yl]carbonyl}piperazine-1-carboxylate], the results for the inhibition at 10 µM in the assay on DLD-1, with KATO III and with NCI-H1299 were 50 to 79%, 80 to 100% and 50 to 79%, respectively. Also, the inhibition at 30 µM at IGF-1R is 80 to 100%.
Consider `O=C(c1ccc2[nH]c(-c3ccc[nH]c3=O)c(-c3ccccc3)c2c1)N1CCN(c2cnccn2)CC1` [Compound 25, 3-{3-phenyl-5-[(4-pyrazin-2-ylpiperazin-1-yl)carbonyl]-1H-indol-2-yl}pyridin-2(1H)-one], for which the values for the inhibition at 10 µM with DLD-1, with KATO III and in the assay on NCI-H1299 were 50 to 79%, 80 to 100% and 50 to 79%, respectively. Also, on IGF-1R, the inhibition at 30 µM was 80 to 100%.
For the molecule `O=C(NC1CCC1)c1ccc2[nH]c(-c3ccc[nH]c3=O)c(-c3ccccc3)c2c1` [Compound 26, N-cyclobutyl-2-(2-oxo-1,2-dihydropyridin-3-yl)-3-phenyl-1H-indole-5-carboxamide], the inhibition at 10 µM in the assay with DLD-1, with KATO III, in the assay on MDA-MB-231 and with NCI-H1299 was 80 to 100% in each case. At IGF-1R, the inhibition at 30 µM was in the range of 80 to 100%.
In the case of `O=C(NCc1ccc(F)cc1F)c1ccc2[nH]c(-c3ccc[nH]c3=O)c(-c3ccc(-c4ccccc4)cc3)c2c1` [Compound 34, 3-biphenyl-4-yl-N-(2,4-difluorobenzyl)-2-(2-oxo-1,2-dihydropyridin-3-yl)-1H-indole-5-carboxamide], the inhibition at 10 µM with DLD-1 is 50 to 79%; with KATO III, 80 to 100%; in the assay on MDA-MB-231, 50 to 79%; with NCI-H1299, 50 to 79%.
`CN(C)CCCNC(=O)c1ccc2[nH]c(-c3ccc[nH]c3=O)c(-c3ccc(-c4ccccc4)cc3)c2c1` [Compound 49, 3-biphenyl-4-yl-N-[3-(dimethylamino)propyl]-2-(2-oxo-1,2-dihydropyridin-3-yl)-1H-indole-5-carboxamide]: the inhibition at 10 µM in the assay on DLD-1, with KATO III, in the assay on MDA-MB-231 and in the assay with NCI-H1299 was 80 to 100% in each case.
On to `COc1ccc(-c2c(-c3ccc[nH]c3=O)[nH]c3ccc(C(=O)NCCCN4CCOCC4)cc23)c(OC)c1` [Compound 81, 3-(2,4-dimethoxyphenyl)-N-(3-morpholin-4-ylpropyl)-2-(2-oxo-1,2-dihydropyridin-3-yl)-1H-indole-5-carboxamide], for which the inhibition at 10 µM in the assay on DLD-1, in the assay with KATO III and in the assay with NCI-H1299 was less than 50% in each case. Further, at IGF-1R, the inhibition at 30 µM lay in the range of 80 to 100%.
